Test results published in US9090600B2, “Fungicidal 4-substituted-3-{phenyl[(heterocyclylmethoxy)imino]methyl}-1,2,4-oxadizol-5(4H)-one derivatives” (BAYER INTELLECTUAL PROPERTY GMBH, priority 2011, dated 2015).
Like-named read-outs stand apart in the source and are kept apart here. Marks after values point to notes of the source that are not given here.

What was measured:
[1] = pH 2.7
Pyrenophora teres = assay: In vivo test on Pyrenophora teres (barley net blotch); details: barley plants, spray, 500 ppm, grading 12 days after contamination
Experimental: The active ingredients tested are prepared by homogenization in a mixture of acetone/Tween/DMSO, then diluted with water to obtain the desired active material concentration.
Barley plants (Plaisant variety), sown on a 50/50 peat soil-pozzolana substrate in starter cups and grown at 22° C. (12 h)/20° C. (12 h), are treated at the 1-leaf stage (10 cm tall) by spraying with the active ingredient prepared as described above.
(§1) Plants, used as controls, are treated with an aqueous solution not containing the active material.
After 24 hours, the plants are contaminated by spraying them with an aqueous suspension of Pyrenophora teres spores (12.000 spores per ml). The spores are collected from a 12-day-old culture.
The contaminated barley plants are incubated for 24 hours at about 20° C. and at 100% relative humidity, and then for 12 days at 80% relative humidity.
Grading is carried out 12 days after the contamination, in comparison with the control plants.
Under these conditions, good (at least 70%) is observed at a dose of 500 ppm with the following compounds: […]

Botrytis cinerea = assay: In vivo test on Botrytis cinerea (grey mould); details: gherkin plants, spray, 500 ppm, grading 4/5 days after contamination
Experimental: The active ingredients tested are prepared by homogenization in a mixture of acetone/Tween/DMSO, then diluted with water to obtain the desired active material
Gherkin plants (Vert petit de Paris variety), sown on a 50/50 peat soil-pozzolana substrate in starter cups and grown at 18-20° C., are treated at the cotyledon Z11 stage by spraying with the active ingredient prepared as described above.
Plants, used as controls, are treated with an aqueous solution not containing the active material. After 24 hours, the plants are contaminated by spraying them with an aqueous suspension of cryopreserved Botrytis cinerea spores (50.000 spores per ml) on upper surface of the leaves. The spores are suspended in a nutrient solution composed of: • 10 g/L of PDB; • 50 g/L of D-fructose; • 2 g/L of NH4NO3; • 1 g/L of KH2PO4.
The contaminated cucumber plants are settled for 4/5 days in a climatic room at 17° C. (day/night) and at 80% relative humidity.
Grading is carried out 4/5 days after the contamination, in comparison with the control plants.
(§2) Under these conditions, good (at least 70%) or total protection is observed at a dose of 500 ppm with the following compounds: […]

Pythium irregulare = assay: Pythium test (corn)/seed treatment; type: in vivo; details: 10 g/dt seed of active ingredient, emerged seedlings after 7 days at 10° C. then 14 days at 20° C.
Experimental: (§3) The test is performed under greenhouse conditions.
Corn seeds, treated with the active compound or compound combinations, solved in N-methyl-2-pyrrolidon and diluted with water to the desired dosages, were sown in 6*6 cm pots containing 4 cm of a 1:1 mix of steamed field soil and sand.
Perlite was incubated with mycelium fragments of Pythium irregulare. 5 ml of infected perlite was scattered between the treated cotton seeds. Seeds were than covered by the 1:1 mix of steamed field soil and sand. Pots were incubated in the greenhouse 7 days at 10° C. and 80% relative humidity and then 14 days at 20° C. and 80% relative humidity.
(§4) Assessment consisted of counting of emerged seedlings. 0% means an efficacy which corresponds to that of the control, while an efficacy of 100% means that all seedlings have emerged.

Phytophthora infestans [2] = type: in vivo; details: tomato, preventive spray, 100 ppm of active ingredient, evaluated 7 days after inoculation
Pythium aphanidermatum = assay: Pythium test (cucumber)/seed treatment; type: in vivo; details: 10 g/dt seed of active ingredient, emerged seedlings after 7 days
Experimental: as §3
Cucumber seeds, treated with the active compound or compound combinations, solved in N-methyl-2-pyrrolidon and diluted with water to the desired dosages, were sown in 6*6 cm pots containing 4 cm of a 1:1 mix of steamed field soil and sand.
Perlite was incubated with mycelium fragments of Pythium aphanidermatum. 5 ml of infected perlite was scattered between the treated […] seeds. Seeds were then covered by the 1:1 mix of steamed field soil and sand. Pots were incubated in the greenhouse 7 days at 24° C. and 80% relative humidity. Assessment consisted of counting of emerged seedlings. 0% means an efficacy which corresponds to that of the control, while an efficacy of 100% means that all seedlings have emerged.

Pythium ultimum = assay: Pythium test (cotton)/seed treatment; type: in vivo; details: 10 g/dt seed of active ingredient, emerged seedlings after 7 days
Experimental: as §3
Cotton seeds, treated with the active compound or compound combinations, solved in N-methyl-2-pyrrolidon and diluted with water to the desired dosages, were sown in 6*6 cm pots containing 4 cm of a 1:1 mix of steamed field soil and sand.
Perlite was incubated with mycelium fragments of Pythium ultimum. 1 ml of infected perlite was scattered between the treated cotton seeds. Seeds were then covered by light expanded clay aggregate. Pots were incubated in the greenhouse 7 days at 20° C. and 80% relative humidity.
as §4

Plasmopara viticola = assay: Plasmopara test (grapevines)/preventive; type: in vivo; details: preventive spray, 10 ppm of active ingredient, evaluated 6 days after inoculation
Outline: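 Young grapevines sprayed preventively with compound formulated in acetone/dimethylacetamide with emulsifier, diluted in water, then inoculated with P. viticola spores after drying. Held 1 day at ~20 °C/100% RH, 4 days in greenhouse at ~21 °C/~90% RH, then misted for 1 day. Efficacy scored 6 days post-inoculation (0% = untreated control, 100% = no disease).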

Alternaria brassicae = assay: In vivo test on Alternaria brassicae (leaf spot of crucifers); details: radish plants, spray, 500 ppm, grading 6 to 7 days after contamination
Experimental: (§5) The active ingredients tested are prepared by homogenization in a mixture of acetone/tween/DMSO, then diluted with water to obtain the desired active material.
Radish plants (Pernot variety), sown on a 50/50 peat soil-pozzolana substrate in starter cups and grown at 18-20° C., are treated at the cotyledon stage by spraying with the active ingredient prepared as described above.
Plants, used as controls, are treated with the mixture of acetone/tween/water not containing the active material.
After 24 hours, the plants are contaminated by spraying them with an aqueous suspension of Alternaria brassicae spores (40,000 spores per cm^3). The spores are collected from a 12 to 13 days-old culture.
The contaminated radish plants are incubated for 6-7 days at about 18° C., under a humid atmosphere.
Grading is carried out 6 to 7 days after the contamination, in comparison with the control plants.
Under these conditions, good protection (at least 70%) is observed at a dose of 500 ppm with the following compounds: […]

Phytophthora infestans [3] = type: in vivo; details: tomato plants, spray, 500 ppm, grading 5 days after contamination
[4] = system: Mycosphaerella graminicola; assay: In vivo test on Mycosphaerella graminicola (wheat leaf spot); details: wheat plants, spray, 500 ppm, grading 21 to 28 days after contamination
Outline: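 Scipion wheat at 1-leaf stage was sprayed with compound suspension (acetone/tween/DMSO diluted in water), then inoculated 24 h later with spores (500.000/ml). Plants were held 72 h at 18° C and 100% RH, then 21 to 28 days at 90% RH. Efficacy was graded as % versus untreated controls.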

Puccinia recondita = assay: In vivo test on Puccinia recondita (brown rust); details: wheat plants, spray, 500 ppm, grading 10 days after contamination
Outline: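 Wheat (Scipion) at the 1-leaf stage sprayed with compound suspension (acetone/tween/DMSO diluted in water), then inoculated 24 h later with Puccinia recondita spores at 100.000 spores per ml. Plants were held 24 h at 20 °C/100% RH, then 10 days at 20 °C/70% RH; protection graded 10 days post-inoculation versus untreated controls.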

Pyricularia grisea = type: in vivo; details: rice plants, spray, 500 ppm, grading 6 days after contamination
Uromyces appendiculatus = assay: In vivo test on Uromyces appendiculatus (brown rust of bean); details: Saxa variety plants, spray, 500 ppm, grading 10 days after contamination
Experimental: as §5
Wheat plants (Saxa variety) sown on 50/50 peat soil-pozzolana substrate in starter cups and grown at 24° C., are treated at the 2-leaf stage (9 cm tall) by spraying with the aqueous suspension described above.
as §1
After 24 hours, the plants are contaminated by spraying the leaves with an aqueous suspension of Uromyces appendiculatus spores (150.000 spores per ml). The spores are collected from a 10-day-old contaminated […] and are suspended in water containing 2.5 ml/l of tween 80 10%. The contaminated […] are incubated for 24 hours at 20° C. and at 100% relative humidity, and then for 10 days at 20° C. and at 70% relative humidity. Grading is carried out 10 days after the contamination, in comparison with the control plants.
as §2

SMILES	LogP [1]	Eff. % (Plasmopara viticola) [%]	Eff. % (Alternaria brassicae) [%]	Eff. % (Phytophthora infestans [3]) [%]	Eff. % (Pyricularia grisea) [%]	further results
Cn1c(/C(=N\OCc2cccc(NC(=O)C3CC3)n2)c2ccccc2)noc1=O [Example 35]	2.92 [a]	–	–	–	–	Eff. % (Pyrenophora teres): 100%; Eff. % (Botrytis cinerea): 71%
CCOCC(C)OC(=O)Nc1cccc(CO/N=C(/c2ccccc2)c2noc(=O)n2C)n1 (centres unmarked) [Example 199]	3.53 [a]	100	–	–	–	Eff. % (Pythium irregulare): 100%; Eff. % (Phytophthora infestans [2]): 97%; Eff. % (Pythium aphanidermatum): 99%; Eff. % (Pythium ultimum): 96%
Cn1c(C(=NOCc2csc(NC(=O)c3ccc(Cl)cc3Cl)n2)c2ccccc2)noc1=O [Example 262]	3.94 [a]	–	83	78	–	–
Cc1ccc(/C(=N/OCc2csc(N)n2)c2noc(=O)[nH]2)cc1 [Example 308]	1.84 [a]	–	90	89	–	Eff. % [4]: 100%; Eff. % (Puccinia recondita): 94%
Cn1c(/C(=N\OCc2cccc(NC(=O)C3OCCc4ccccc43)n2)c2ccccc2)noc1=O (centres unmarked) [Example 227]	4.1 [a]	–	–	100	96	–
Cn1c(/C(=N\OCc2cccc(NC(=O)OC(CCl)CCl)n2)c2ccccc2)noc1=O [Example 306]	3.83 [a]	–	–	100	90	–
COc1ccccc1OCC(=O)Nc1nc(CO/N=C(/c2ccccc2)c2noc(=O)n2C)cs1 [Example 171]	3.55 [a]	–	–	100	80	Eff. % (Uromyces appendiculatus): 82%
C=CCOC(=O)Nc1cccc(CO/N=C(/c2ccccc2)c2noc(=O)n2C)n1 [Example 109]	3.42 [a]	–	–	93	70	–
Cn1c(/C(=N\OCc2cccc(NC(=O)CCCC[n+]3ccccc3)n2)c2ccccc2)noc1=O.O=C[O-] [Example 67]	1.67 [a]	–	–	89	–	Eff. % [4]: 90%; Eff. % (Puccinia recondita): 98%; Eff. % (Botrytis cinerea): 80%
CCCC(C)OC(=O)Nc1cccc(CO/N=C(/c2ccccc2)c2noc(=O)n2C)n1 (centres unmarked) [Example 282]	4.36 [a]	96	–	98	–	Eff. % (Pythium irregulare): 90%; Eff. % (Phytophthora infestans [2]): 92%; Eff. % (Pythium aphanidermatum): 100%
Cn1c(/C(=N\OCc2cccc(NC(=O)c3ccc(F)cc3)n2)c2ccccc2)noc1=O [Example 364]	3.62 [a]	100	92	98	–	–
Cn1c(/C(=N\OCc2cccc(NC(=O)c3cccc(F)c3)n2)c2cccc(F)c2)noc1=O [Example 42]	3.79 [a]	–	–	92	71	–
CC(C)CCCC(=O)Nc1cccc(CO/N=C(/c2ccccc2)c2noc(=O)n2C)n1 [Example 95]	4.25 [a]	100	–	100	70	–
C=CCCCCC(=O)Nc1cccc(CO/N=C(/c2ccccc2)c2noc(=O)n2C)n1 [Example 167]	3.89 [a]	86	–	98	96	–
CCCCCC(=O)Nc1cccc(CO/N=C(/c2ccccc2)c2noc(=O)n2C)n1 [Example 111]	3.89 [a]	100	70	100	–	Eff. % (Phytophthora infestans [2]): 95%; Eff. % [4]: 100%; Eff. % (Uromyces appendiculatus): 72%
CCCCCOC(=O)Nc1cccc(CO/N=C(/c2ccccc2)c2noc(=O)n2C)n1 [Example 2]	4.44 [a]	97	–	–	–	Eff. % (Pythium irregulare): 100%; Eff. % (Phytophthora infestans [2]): 100%; Eff. % (Pythium aphanidermatum): 98%; Eff. % (Pythium ultimum): 89%
Cn1c(/C(=N\OCc2cccc(NC(=O)CCCCl)n2)c2ccccc2)noc1=O [Example 34]	3.27 [a]	–	100	99	–	–
CCCCCOC(=O)Nc1cccc(CO/N=C(/c2cccc(OC)c2)c2noc(=O)n2C)n1 [Example 36]	4.46 [a]	–	–	85	–	Eff. % (Puccinia recondita): 75%; Eff. % (Pyrenophora teres): 71%; Eff. % (Botrytis cinerea): 86%
C#CCC(C)(C)OC(=O)Nc1cccc(CO/N=C(/c2ccccc2)c2noc(=O)n2C)n1 [Example 39]	3.94 [a]	97	83	100	–	Eff. % (Uromyces appendiculatus): 81%; Eff. % (Puccinia recondita): 98%
CCCOC(=O)Nc1nc(CON=C(c2ccccc2)c2noc(=O)n2C)cs1 [Example 265]	3.35 [a]	–	–	93	70	–
